Measured values published in ChEMBL document CHEMBL4680094, “Insights of a Lead Optimization Study and Biological Evaluation of Novel 4-Hydroxytamoxifen Analogs as Estrogen-Related Receptor γ (ERRγ) Inverse Agonists” (J Med Chem, 2016).
pIC50: −log10 of the molar value.

Assays:
[1] = molecular target: T1, Steroid hormone receptor ERR2 (Homo sapiens, UniProt O95718); experiment: Binding affinity to GST-tagged ERRbeta LBD (unknown origin) using fluorescein PGC1alpha as coactivator incubated for 1 hr by LanthaScreen TR-FRET co-regulator assay
T1 sequence (O95718 whole entry): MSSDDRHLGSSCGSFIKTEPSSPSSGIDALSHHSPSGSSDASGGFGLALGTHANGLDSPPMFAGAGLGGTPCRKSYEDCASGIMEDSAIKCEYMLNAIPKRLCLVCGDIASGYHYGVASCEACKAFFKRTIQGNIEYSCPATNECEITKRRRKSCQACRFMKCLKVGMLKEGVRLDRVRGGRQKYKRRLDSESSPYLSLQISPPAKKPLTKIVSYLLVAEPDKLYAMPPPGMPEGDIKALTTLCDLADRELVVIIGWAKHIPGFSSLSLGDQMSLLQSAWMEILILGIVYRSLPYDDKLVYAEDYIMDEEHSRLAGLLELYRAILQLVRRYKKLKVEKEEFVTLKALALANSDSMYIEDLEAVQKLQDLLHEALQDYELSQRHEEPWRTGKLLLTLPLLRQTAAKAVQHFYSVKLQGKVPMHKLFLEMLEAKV

[2] = molecular target: T2, Steroid hormone receptor ERR1 (Homo sapiens, UniProt P11474); experiment: Binding affinity to GST-tagged ERRalpha LBD (unknown origin) using fluorescein PGC1alpha as coactivator incubated for 1 hr by LanthaScreen TR-FRET co-regulator assay
T2 sequence (P11474 whole entry): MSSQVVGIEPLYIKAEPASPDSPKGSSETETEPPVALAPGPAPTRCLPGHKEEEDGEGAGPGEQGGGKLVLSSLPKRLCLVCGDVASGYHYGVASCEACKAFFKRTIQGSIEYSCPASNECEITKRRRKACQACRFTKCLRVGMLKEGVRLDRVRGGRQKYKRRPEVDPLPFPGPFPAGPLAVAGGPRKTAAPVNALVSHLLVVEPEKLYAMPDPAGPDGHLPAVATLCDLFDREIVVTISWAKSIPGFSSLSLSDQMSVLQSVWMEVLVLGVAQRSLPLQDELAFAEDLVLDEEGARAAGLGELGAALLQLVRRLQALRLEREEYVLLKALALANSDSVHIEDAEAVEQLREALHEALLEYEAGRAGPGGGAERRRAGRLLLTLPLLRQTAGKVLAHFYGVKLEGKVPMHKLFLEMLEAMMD

Estrogen receptor = molecular target: T3, Estrogen receptor (Homo sapiens, UniProt P03372); experiment: Binding affinity to GST-tagged ERalpha LBD (unknown origin) using fluorescein PGC1alpha as coactivator incubated for 1 hr by LanthaScreen TR-FRET co-regulator assay
T3 sequence (P03372 whole entry): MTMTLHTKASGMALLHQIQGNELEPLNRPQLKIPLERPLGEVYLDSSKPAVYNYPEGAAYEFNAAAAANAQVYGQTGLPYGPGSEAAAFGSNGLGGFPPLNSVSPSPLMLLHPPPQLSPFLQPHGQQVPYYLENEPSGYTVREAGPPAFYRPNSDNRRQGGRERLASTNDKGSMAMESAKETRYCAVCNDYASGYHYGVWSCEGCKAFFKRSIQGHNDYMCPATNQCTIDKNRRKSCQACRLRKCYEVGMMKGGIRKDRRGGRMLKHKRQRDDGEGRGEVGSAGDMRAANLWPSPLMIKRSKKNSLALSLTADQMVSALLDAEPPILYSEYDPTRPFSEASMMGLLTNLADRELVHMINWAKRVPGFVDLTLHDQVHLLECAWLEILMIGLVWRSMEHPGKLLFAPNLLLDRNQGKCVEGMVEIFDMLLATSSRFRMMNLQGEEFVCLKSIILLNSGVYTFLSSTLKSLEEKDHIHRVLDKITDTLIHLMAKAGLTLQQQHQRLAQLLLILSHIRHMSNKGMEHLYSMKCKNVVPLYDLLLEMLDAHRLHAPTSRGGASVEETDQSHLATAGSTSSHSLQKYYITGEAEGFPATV

[3] = molecular target: T4, Estrogen-related receptor gamma (Homo sapiens, UniProt P62508)
T4 sequence (P62508 whole entry): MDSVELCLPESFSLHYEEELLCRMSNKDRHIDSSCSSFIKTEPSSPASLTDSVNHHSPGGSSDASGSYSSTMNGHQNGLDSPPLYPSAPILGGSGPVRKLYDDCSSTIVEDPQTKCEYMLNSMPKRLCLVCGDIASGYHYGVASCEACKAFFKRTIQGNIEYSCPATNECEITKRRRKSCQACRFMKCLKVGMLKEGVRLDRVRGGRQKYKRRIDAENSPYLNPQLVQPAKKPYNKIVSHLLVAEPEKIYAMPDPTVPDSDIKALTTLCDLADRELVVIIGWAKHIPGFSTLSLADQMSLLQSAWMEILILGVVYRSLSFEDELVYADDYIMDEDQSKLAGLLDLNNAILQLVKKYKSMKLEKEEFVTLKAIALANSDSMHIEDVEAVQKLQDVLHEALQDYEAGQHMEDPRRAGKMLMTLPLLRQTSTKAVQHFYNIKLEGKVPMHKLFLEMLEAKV

## OCCC/C(=C(\c1ccc(O)cc1)c1ccc(OCCN2CCC[C@@H]2CO)cc1)c1ccccc1
[1]
  pIC50: < 5.00
[2]
  pIC50: < 5.00

## OCCC/C(=C(\c1ccc(O)cc1)c1ccc(OCCN2C[C@H]3CNC[C@H]3C2)cc1)c1ccccc1
Estrogen receptor
  pIC50: 6.39
[1]
  pIC50: < 5.00
[2]
  pIC50: < 5.00
[3]
  pIC50: 6.78

## CN(C)CCn1cc(-c2ccc(/C(=C(/CCCO)c3ccccc3)c3ccc(O)cc3)cc2)nn1
[3]
  pIC50: 5.20

## OCCC/C(=C(\c1ccc(O)cc1)c1ccc(OCCN2CCC3(CCNC3)C2)cc1)c1ccccc1 (stereo not given)
Estrogen receptor
  pIC50: 5.25
[1]
  pIC50: < 5.00
[2]
  pIC50: < 5.00
[3]
  pIC50: 6.49

## C[Si](C)(CN1CCCCC1)c1ccc(/C(=C(/CCCO)c2ccccc2)c2ccc(O)cc2)cc1
Estrogen receptor
  pIC50: 5.36
[1]
  pIC50: < 5.00
[2]
  pIC50: < 5.00
[3]
  pIC50: 6.61

## O=[N+]([O-])c1ccc(/C(=C(\CCCO)c2ccccc2)c2ccc(N3CCC4(CCNC4)C3)cc2)cc1 (stereo not given)
[3]
  pIC50: 5.08

## OCCC/C(=C(\c1ccc(O)cc1)c1ccc2c(c1)CCN2CCN1CCCC1)c1ccccc1
[3]
  pIC50: 5.10

## O=C(Nc1ccc(/C(=C(/CCCO)c2ccccc2)c2ccc(O)cc2)cc1)C1CCCN1 (stereo not given)
[3]
  pIC50: < 5.00

## OCCC/C(=C(\c1ccc(O)cc1)c1ccc(N2CCOCC2)cc1)c1ccccc1
[3]
  pIC50: 5.65

## CN1CCN(CCOc2ccc(/C(=C(/CCCO)c3ccccc3)c3ccc(O)cc3)cc2)CC1
[3]
  pIC50: 5.66

## CN1CCC[C@@H]1CCOc1ccc(/C(=C(/CCCO)c2ccccc2)c2ccc(O)cc2)cc1
Estrogen receptor
  pIC50: 6.11
[1]
  pIC50: < 5.00
[2]
  pIC50: < 5.00

## OCCC/C(=C(\c1ccc(O)cc1)c1ccc(OCCN2CCCC2)cc1)c1ccccc1
Estrogen receptor
  pIC50: 6.19
[1]
  pIC50: < 5.00
[2]
  pIC50: < 5.00

## OCCC/C(=C(\c1ccc(Br)cc1)c1ccc(CN2CCCCC2)cc1)c1ccccc1
[3]
  pIC50: 5.64

## C[Si](C)(CN1CCNCC1)c1ccc(/C(=C(/CCCO)c2ccccc2)c2ccc(O)cc2)cc1
[3]
  pIC50: 5.89

## OCCC/C(=C(\c1ccc(O)cc1)c1ccc(OCCN2CCNCC2)cc1)c1ccccc1
[3]
  pIC50: 5.98

## C[Si](C)(CN1C[C@H]2CNC[C@H]2C1)c1ccc(/C(=C(/CCCO)c2ccccc2)c2ccc(O)cc2)cc1
[3]
  pIC50: 6.34

## CN1C[C@@H]1CCCOc1ccc(/C(=C(/CCCO)c2ccccc2)c2ccc(O)cc2)cc1 (stereo not given in full)
[3]
  pIC50: 5.96

## CN1C[C@H]1CCCOc1ccc(/C(=C(/CCCO)c2ccccc2)c2ccc(O)cc2)cc1 (stereo not given in full)
[3]
  pIC50: 6.11

## OCCC/C(=C(\c1ccc(O)cc1)c1ccc(OCCN2C[C@H]3C[C@H]3[C@H]2CO)cc1)c1ccccc1
[2]
  pIC50: < 5.00

## O=C(CN1C[C@H]2CNC[C@H]2C1)Nc1ccc(/C(=C(/CCCO)c2ccccc2)c2ccc(O)cc2)cc1
[3]
  pIC50: 5.13

## OCCC/C(=C(\c1ccc(O)cc1)c1ccc(NCCN2CCCCC2)cc1)c1ccccc1
[3]
  pIC50: 5.81

## CC(C)(C)OC(=O)N1CCC(n2cc(/C(=C(/CCCO)c3ccccc3)c3ccc(O)cc3)cn2)CC1
[3]
  pIC50: < 5.00

## Cc1ccc(/C(=C(\CCCO)c2ccccc2)c2ccc3oc(CCN4CCNCC4)cc3c2)cc1
[3]
  pIC50: 5.67

## CN1CCN(C[Si](C)(C)c2ccc(/C(=C(/CCCO)c3ccccc3)c3ccc(O)cc3)cc2)CC1
[3]
  pIC50: 5.90

## OCCC/C(=C(\c1ccc(O)cc1)c1ccc(OCCN2CC3CC3C2)cc1)c1ccccc1 (stereo not given)
[2]
  pIC50: < 5.00

## CN1CCC[C@H]1CCOc1ccc(/C(=C(/CCCO)c2ccccc2)c2ccc(O)cc2)cc1
Estrogen receptor
  pIC50: 6.14
[1]
  pIC50: 5.07
[2]
  pIC50: < 5.00

## OCCC/C(=C(\c1ccc(Br)cc1)c1ccc(OCCN2CC2)cc1)c1ccccc1
[3]
  pIC50: 5.82

## CN1C[C@@H]1CCCOc1ccc(/C(=C(/CCCO)c2ccccc2)c2ccc(Br)cc2)cc1 (stereo not given in full)
[3]
  pIC50: 5.78

## CN1CCN(Cc2ccc(/C(=C(/CCCO)c3ccccc3)c3ccc([N+](=O)[O-])cc3)cc2)CC1
[3]
  pIC50: < 5.00

## OCCC/C(=C(\c1ccc(O)cc1)c1ccc(OCCN2CC2)cc1)c1ccccc1
[1]
  pIC50: 5.43
[2]
  pIC50: < 5.00
[3]
  pIC50: 7.15

## OCCC/C(=C(\c1ccc(O)cc1)c1ccc2oc(CCN3CCNCC3)cc2c1)c1ccccc1
[3]
  pIC50: 6.05

## C[Si](C)(CN1CCCC1)c1ccc(/C(=C(/CCCO)c2ccccc2)c2ccc(O)cc2)cc1
Estrogen receptor
  pIC50: < 5.00
[1]
  pIC50: < 5.00
[2]
  pIC50: < 5.00
[3]
  pIC50: 6.09

## O=C(CN1CCCCC1)Nc1ccc(/C(=C(/CCCO)c2ccccc2)c2ccc(O)cc2)cc1
[3]
  pIC50: 5.56

## OCCC/C(=C(\c1ccc(O)cc1)c1ccc2oc(CCN3CCCCC3)cc2c1)c1ccccc1
Estrogen receptor
  pIC50: 6.18
[1]
  pIC50: < 5.00
[2]
  pIC50: < 5.00
[3]
  pIC50: 6.57

## CN1CCN(Cc2ccc(/C(=C(/CCCO)c3ccccc3)c3ccc(O)cc3)cc2)CC1
[3]
  pIC50: 5.63

## OCCC/C(=C(\c1ccc(O)cc1)c1ccc2c(ccn2CCN2CCCCC2)c1)c1ccccc1
[3]
  pIC50: 5.44
